From ChEMBL document CHEMBL1201862, “PubChem BioAssay data set” (2004)
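The compound was tested at five concentrations on cells cultured in 96-well plates, with a 48-hour exposure period. GI50: concentration for 50% inhibition of growth.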 Active and inactive are the calls of the source. No stated cut-off is given here; in the data, active = GI50 up to about 1.1 µM and inactive = higher.

Assays:
Assay in all cases: NCI-60 cell line screen, 48 h
Malme-3M = test system: Malme-3M
SNB-19 = test system: SNB-19
SNB-75 = test system: SNB-75
MCF7 = test system: MCF7
NCI/ADR-RES = test system: NCI/ADR-RES
CAKI-1 = test system: CAKI-1
NCI-H522 = test system: NCI-H522
A498 = test system: A498
M14 = test system: M14
IGROV-1 = test system: IGROV-1
NCI-H23 = test system: NCI-H23
SK-MEL-28 = test system: SK-MEL-28
UACC-62 = test system: UACC-62
SF-268 = test system: SF-268
SW-620 = test system: SW-620
DLD-1 = test system: DLD-1
HCC 2998 = test system: HCC 2998
DMS-114 = test system: DMS-114
XF498 = test system: XF498
SNB-78 = test system: SNB-78

Row | Compound | GI50 (Malme-3M) | GI50 (SNB-19) | GI50 (SNB-75) | GI50 (MCF7) | GI50 (NCI/ADR-RES) | GI50 (CAKI-1) | GI50 (NCI-H522) | GI50 (A498) | GI50 (M14) | GI50 (IGROV-1) | GI50 (NCI-H23) | GI50 (SK-MEL-28) | GI50 (UACC-62) | GI50 (SF-268) | GI50 (SW-620) | GI50 (DLD-1) | GI50 (HCC 2998) | GI50 (DMS-114) | GI50 (XF498) | GI50 (SNB-78)
1 | COc1cc2c(cc1OC)C(=O)/C(=C/c1cc(OC)c(OC)c(OC)c1)C2 | > 100 µM (inactive) | > 100 µM (inactive) | > 100 µM (inactive) | > 100 µM (inactive) | 23.7 µM (inactive) | > 100 µM (inactive) | 14.6 µM (inactive) | > 100 µM (inactive) | 96.6 µM (inactive) | > 100 µM (inactive) | > 100 µM (inactive) | > 100 µM (inactive) | > 100 µM (inactive) |  |  |  |  |  |  | 
2 | O=C1CN2C(Cl)(Cl)C2(c2ccccc2)c2cc(Cl)ccc2N1CC(F)(F)F (stereo not drawn) | 22.7 µM (inactive) |  | 13 µM (inactive) |  |  | 49.3 µM (inactive) | 17.4 µM (inactive) |  | 24 µM (inactive) | 26.8 µM (inactive) | 26.2 µM (inactive) | 22.6 µM (inactive) | 56.1 µM (inactive) | 38.4 µM (inactive) | 39.4 µM (inactive) | 16.4 µM (inactive) | 16.6 µM (inactive) | 27.2 µM (inactive) |  | 
3 | CN1C2CC(=O)CC1[C@H](O)[C@@H]2O | > 100 µM (inactive) | > 100 µM (inactive) |  | > 100 µM (inactive) | > 100 µM (inactive) |  |  |  | > 100 µM (inactive) |  | > 100 µM (inactive) | > 100 µM (inactive) |  | > 100 µM (inactive) | > 100 µM (inactive) |  | > 100 µM (inactive) |  |  | 
4 | CC1OC1C(=O)C1(O)C(C)C(O)C23OC2(C(O)c2c(O)cccc2C3=O)C1O (stereo not drawn) [CERVICARCIN] | 0.0431 µM (active) | 0.153 µM (active) | 0.212 µM (active) | 0.228 µM (active) | 0.207 µM (active) | 0.0497 µM (active) | 0.0964 µM (active) | 0.352 µM (active) |  | 0.219 µM (active) | 0.0938 µM (active) | 0.182 µM (active) | 0.245 µM (active) | 0.0984 µM (active) | 0.078 µM (active) | 0.167 µM (active) | 0.1 µM (active) | 0.048 µM (active) | 0.253 µM (active) | 0.267 µM (active)
5 | COc1ccc2c3c1O[C@H]1C[C@@H](O)C=C[C@@]31CCN(C)C2 [GALANTAMINE] | > 150 µM (inactive) | > 150 µM (inactive) | > 150 µM (inactive) | > 36 µM (inactive) | > 150 µM (inactive) | 114 µM (inactive) | > 150 µM (inactive) | > 150 µM (inactive) |  | > 150 µM (inactive) | > 150 µM (inactive) | > 150 µM (inactive) | > 150 µM (inactive) | 87.7 µM (inactive) | > 150 µM (inactive) | 50 µM (inactive) | > 150 µM (inactive) | > 150 µM (inactive) | > 150 µM (inactive) | 103 µM (inactive)
6 | O=c1cc[nH]c(=O)[nH]1 [URACIL] |  | 431 µM (inactive) | 350 µM (inactive) | 398 µM (inactive) | > 562 µM (inactive) | 307 µM (inactive) | 371 µM (inactive) | 6.82 µM (inactive) |  | > 828 µM (inactive) | 147 µM (inactive) | 327 µM (inactive) | 330 µM (inactive) | 578 µM (inactive) | 361 µM (inactive) | 532 µM (inactive) | 322 µM (inactive) | 553 µM (inactive) | 4.23 µM (inactive) | 475 µM (inactive)
